{"source": "patent US20160360749A1", "about": "“METHOD FOR […] […]” (ExxonMobil Research and Engineering Company, priority 2015, published 2016)", "key": {"[1]": {"test": "Carbon steel coupon weight loss in a sterile environment without DvH inoculation", "settings": "2 mM indole, carbon steel coupons, FIG. 1", "procedure": "(§1) Carbon steel coupons were incubated in the presence of 0 and 2 mM indole, with and without an inoculum of DvH.\n(§2) The metal loss of the carbon steel coupons was measured. FIG. 1 is a bar graph comparing corrosion as measured in coupon weight loss under the compound (indole) and SRB (DvH) tested.\n(§3) Rectangular X52 carbon steel coupons were polished on 600 grit sand paper and weighed prior to the experiment. 60 ml of L30S30B2 media containing 0-2 mM indole was anaerobically transferred into each autoclaved serum bottle with 1 coupon hung on plastic fishing wire. 1 ml of a DvH overnight culture was inoculated into each bottle and incubated at 30° C. with gentle shaking for 3 days. After the incubation the coupons were descaled with Clarke's solution (tin choloride and antimony oxide in concentrated hydrochloric acid), rinsed with water, dried under nitrogen gas, and weighed again. The metal weight loss after exposure to DvH was then calculated."}, "[2]": {"test_system": "Desulfovibrio vulgaris Hildenborough (DvH)", "test": "Carbon steel coupon weight loss analysis in DvH cultures", "assay_type": "cell-based", "procedure": "as §1, §2\n(§4) Steel coupons were incubated in cultures of DvH for three days with and without indole and then the coupons were measured to determine the amount of metal loss due to corrosion. […] The error bars represent the standard error of the mean from 2 replicates.\nThe wild-type D. vulgaris Hildenborough (DvH) was obtained from Judy Wall at the University of Missouri and Adam Deutchbauer at the Lawrence Berkeley National Laboratory. Freezer stocks of DvH containing 10% glycerol were used to inoculate overnight cultures. The growth media (L30S30B2) contained 30 mM lactate, 30 mM sulfate, 8 mM MgCl2, 20 mM NH4Cl, 2.2 mM phosphate buffer, 0.6 mM CaCl2, 24 mM NaCO3, 0.02% resazurin, 0.06 mM FeCl2, trace elements and Thauer's vitamins (Lee et al., “Indole as an intercellular signal in microbial communities,” 2010, pp. 426-444) with pH adjusted to 7.2. Media was bubbled with 15% CO2 balance N2 and sodium dithionite was added immediately before inoculation to a final concentration of […]. Media containing 0-4 mM indole was made by anaerobically mixing varied volumes of L30S30B2 and L30S30B2 supplemented with 4 mM indole (Sigma-Aldrich, 13408).\nas §3"}, "[3]": {"test_system": "Desulfovibrio vulgaris Hildenborough (DvH)", "test": "DvH metabolism by ion chromatography (lactate, sulfate, acetate)", "assay_type": "cell-based", "settings": "0.5-2 mM indole, FIG. 2B, 2 replicates", "procedure": "as §4\nThe wild-type D. vulgaris Hildenborough (DvH) was obtained from Judy Wall at the University of Missouri and Adam Deutchbauer at the Lawrence Berkeley National Laboratory. Freezer stocks of DvH containing 10% glycerol were used to inoculate overnight cultures. The growth media (L30S30B2) contained 30 mM lactate, 30 mM sulfate, 8 mM MgCl2, 20 mM NH4Cl, 2.2 mM phosphate buffer, 0.6 mM CaCl2, 24 mM NaCO3, 0.02% resazurin, 0.06 mM FeCl2, trace elements and Thauer's vitamins (Lee et al., “Indole as an intercellular signal in microbial communities,” 2010, pp. 426-444) with pH adjusted to 7.2. […]\nIon Chromatography (IC)—One milliliter of cultures were extracted at the beginning and the end of the experiment, centrifuged at 14000 rpm for 2 min, filtered through 0.2 μm cellulose acetate filters, and kept at −20° C. until further IC analysis. Anions of lactate, sulfate, and acetate were quantified using suppressed conductivity on a Dionex ICS-5000 Reagent-Free HPIC System with a Dionex IonPac AS 11-HC column (0.4 mm×250 mm, Thermo Fisher, Massachusetts, USA). […]"}}, "data": [{"smiles": "c1ccc2[nH]ccc2c1", "note": "[indole]", "values": [{"measurement": "reduction in coupon weight loss in sterile environment", "setting": "[1]", "result": "not replicated"}, {"measurement": "reduction of corrosion (coupon weight loss) compared to the no indole treatment", "setting": "[2]; 2 mM indole, carbon steel coupons, in the presence of DvH (MIC), FIG. 1", "result": 2, "unit": "fold"}, {"measurement": "metal loss of coupons incubated in the absence of indole relative to coupons in the presence of indole", "setting": "[2]; 0.5-2 mM indole, steel coupons in DvH cultures, three days, FIG. 2A", "result": "~2", "unit": "fold"}, {"measurement": "corrosion of metal coupons", "setting": "[2]; 0.5 to 2 mM indole, DvH cultures, three days", "result": "little to no corrosion"}, {"measurement": "metabolism of DvH (consumption of lactate and sulfate, production of acetate)", "setting": "[3]", "result": "not significantly affected"}]}]}
